Reference: patent EP4603105A1, “PHARMACEUTICAL COMPOSITION CONTAINING CYCLIC COMPOUND HAVING SELECTIVE KRAS INHIBITORY EFFECT AGAINST HRAS AND NRAS” (CHUGAI SEIYAKU KABUSHIKI KAISHA, priority 2022, dated 2024)
*1 amine or outer side, *2 acyl side, *3 side chain or, on linkers, in order; H or OH if unused. Where a SMILES comes first, the peptide text is derived from it. Bridges are numbered along the chain shown (N, C = ends). [ ]: non-standard residue; d: D form. The star is where a group is joined. hPhe(3-Cl-4-CF3) = N[C@@H](CCc1ccc(C(F)(F)F)c(Cl)c1)C(=O)O; NPrPhe(4-CF3) = CCCN[C@@H](Cc1ccc(C(F)(F)F)cc1)C(=O)O; X14 = COCCN([C@@H](Cc1ccc(C)cc1)C(=O)[*:2])[*:1]; NMeGly(cPent) = CN[C@H](C(=O)O)C1CCCC1; Hyp = O=C(O)[C@@H]1C[C@@H](O)CN1; NMeD = CN[C@@H](CC(=O)O)C(=O)O; NMeL = CN[C@@H](CC(C)C)C(=O)O; Morpholide = C1CN(*)CCO1; Ac5c = NC1(C(=O)O)CCCC1; Aze = O=C(O)[C@@H]1CCN1; Ac4c = NC1(C(=O)O)CCC1; Sar = CNCC(=O)O

Tests used:
[1] = target: GDP-bound NRAS wild-type protein (Homo sapiens, UniProt P01111); assay: Binding to NRAS by surface plasmon resonance (SPR), KD and KD ratio to KRAS
Procedure, shortened: (§1)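 Recombinant RAS proteins bearing a biotinylated Avi tag and loaded with GDP served as the captured ligand, recaptured fresh every cycle. Binding responses were referenced to an uncoated surface and a buffer-only blank cycle. Dissociation constants were obtained by 1:1 model fitting at 30°C.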

HRAS wild-type protein = HRAS wild-type protein (Homo sapiens, UniProt P01112); assay: Binding to HRAS by surface plasmon resonance (SPR), KD and KD ratio to KRAS
Procedure, shortened: as §1

[2] = tested on: human lung cancer strain NCI-H441; type: cell-based
Procedure, shortened: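 Signal came from […] measured per well once the reagent was added. Beforehand, cells were cultured at 37°C and 5% carbon dioxide on a compound series serially diluted in dimethyl sulfoxide.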

[3] = ratio of the KD value with respect to GDP-bound NRAS wild-type protein to the KD value with respect to KRAS
[4] = ratio of the KD value with respect to HRAS wild-type protein to the KD value with respect to KRAS
[5] = ratio of KD for GDP-bound NRAS wild-type protein to KD for KRAS
[6] = ratio of KD for HRAS wild-type protein to KD for KRAS

Sequence of GDP-bound NRAS wild-type protein (P01111 whole entry): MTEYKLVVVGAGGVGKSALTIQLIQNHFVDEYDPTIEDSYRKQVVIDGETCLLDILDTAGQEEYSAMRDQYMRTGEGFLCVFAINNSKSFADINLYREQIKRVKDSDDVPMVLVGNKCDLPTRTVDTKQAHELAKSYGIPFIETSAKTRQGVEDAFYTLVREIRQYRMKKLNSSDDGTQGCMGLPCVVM
Sequence of HRAS wild-type protein (P01112 whole entry): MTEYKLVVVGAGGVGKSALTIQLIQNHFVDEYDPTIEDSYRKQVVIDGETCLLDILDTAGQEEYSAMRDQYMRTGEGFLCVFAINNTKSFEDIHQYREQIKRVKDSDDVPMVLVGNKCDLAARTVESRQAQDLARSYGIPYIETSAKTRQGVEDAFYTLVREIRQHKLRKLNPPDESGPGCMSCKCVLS

SMILES | NRAS /KRAS [1, 3] | HRAS /KRAS (HRAS wild-type protein; [4]) | IC50 [2] [nM] | NRAS /KRAS [1, 5] | HRAS /KRAS (HRAS wild-type protein; [6]) | NRAS /KRAS ([1]; ratio of KD value for GDP-bound NRAS wild-type protein to KD value for KRAS (SPR)) | HRAS /KRAS (HRAS wild-type protein; ratio of KD value for HRAS wild-type protein to KD value for KRAS (SPR))
CC[C@H](C)[C@@H]1NC(=O)[C@H](CC(C)C)N(C)C(=O)C[C@@H](C(=O)N2CCOCC2)N(C)C(=O)[C@H](C2CCCC2)N(C)C(=O)C2(CCC2)NC(=O)[C@@H]2CC(F)(F)CN2C(=O)[C@H](CCc2cc(F)c(C(F)(F)F)c(F)c2)NC(=O)CN(C)C(=O)[C@H](Cc2ccc(C(F)(F)F)cc2)N2CCCCC[C@@H](C2=O)N(C)C(=O)CN(C)C1=O [PP0464] | B (a compound having 3 or more and less than 10 is denoted as B) | B (a compound having 3 or more and less than 10 is denoted as B) | 17.6 | – | – | – | –
CCCN1C(=O)CN(C)C(=O)[C@@H]2CCN2C(=O)[C@H]([C@@H](C)CC)NC(=O)[C@H](CC(C)C)N(C)C(=O)C[C@@H](C(=O)N2CCOCC2)N(C)C(=O)[C@H](C2CCCC2)N(C)C(=O)C2(CCC2)NC(=O)[C@@H]2C[C@@H](OCC)CN2C(=O)[C@H](CCc2ccc(C(F)(F)F)c(Cl)c2)NC(=O)CN(C)C(=O)[C@@H]1Cc1ccc(C(F)(F)F)cc1 [PP0405] ([NMeL]I[Aze][Sar][NPrPhe(4-CF3)][Sar][hPhe(3-Cl-4-CF3)][Hyp](Et)[Ac4c][NMeGly(cPent)][NMeD]-Morpholide; lactam N-11) | B (a compound having 3 or more and less than 10 is denoted as B) | C (A compound having a KD ratio of 0.1 or more and less than 3 is denoted as C) | 14.3 | – | – | – | –
CCC[C@H]1C(=O)N[C@@H](C2CCCCC2)C(=O)N(C)CC(=O)N(C)[C@H]2C/C=C\CCN(C2=O)[C@@H](Cc2ccc(C(F)(F)F)cc2)C(=O)N(C)CC(=O)N[C@@H](CCc2ccc(C(F)(F)F)c(Cl)c2)C(=O)N2C[C@H](OCC)C[C@H]2C(=O)NC2(CC(C)(C)C2)C(=O)N(C)[C@@H](C2CCCC2)C(=O)N(C)[C@H](C(=O)N(C)C)CC(=O)N1C [PP2996] | – | – | 13.7 | AA (a compound having 20 or more is denoted as AA) | A (a compound having 10 or more and less than 20 is denoted as A) | – | –
CCO[C@@H]1C[C@H]2C(=O)NC3(CC(C)(C)C3)C(=O)N(C)[C@@H](C3CCCC3)C(=O)N(C)[C@H](C(=O)N(C)C)CC(=O)N(C)[C@@H](CC3CCC3)C(=O)N[C@@H]([C@@H](C)CC)C(=O)N(C)CC(=O)N(C)[C@H]3C/C=C\CCN(C3=O)[C@@H](Cc3ccc(C(F)(F)F)cc3)C(=O)N(C)CC(=O)N[C@@H](CCc3cc(F)c(C(F)(F)F)c(F)c3)C(=O)N2C1 [PP1651] | – | – | 2.3 | – | – | A (a compound having 10 or more and less than 20 is denoted as A) | B (a compound having 3 or more and less than 10 is denoted as B)
CC[C@H](C)[C@@H]1NC(=O)[C@H](CC(C)C)N(C)C(=O)C[C@@H](C(=O)N2CCOCC2)N(C)C(=O)[C@H](C2CCCC2)N(C)C(=O)C2(CCCC2)NC(=O)[C@@H]2CCCN2C(=O)[C@H](CCc2ccc(C(F)(F)F)c(Cl)c2)NC(=O)CN(C)C(=O)[C@H](Cc2ccc(C)cc2)N(CCOC)C(=O)CN(C)C(=O)CN(C)C1=O [PP0104] ([NMeL]I[Sar][Sar][X14][Sar][hPhe(3-Cl-4-CF3)]P[Ac5c][NMeGly(cPent)][NMeD]-Morpholide; lactam N-11) | – | – | 6.7 | B (a compound having 3 or more and less than 10 is denoted as B) | C (A compound having a KD ratio of 0.1 or more and less than 3 is denoted as C) | – | –
CCC[C@H]1C(=O)N[C@@H]([C@@H](C)CC)C(=O)N(C)CC(=O)N(C)[C@H]2C/C=C\CCN(C2=O)[C@@H](Cc2ccc(C(F)(F)F)cc2)C(=O)N(C)CC(=O)N[C@@H](CCc2ccc3ccn(C)c3c2)C(=O)N2C[C@H](OCC)C[C@H]2C(=O)NC2(CC(C)(C)C2)C(=O)N(C)[C@@H](C(CC)CC)C(=O)N(C)[C@H](C(=O)N(C)C)CC(=O)N1C [PP2912] | – | – | 86 | AA (a compound having 20 or more is denoted as AA) | A (a compound having 10 or more and less than 20 is denoted as A) | – | –
